In this assay the target is T1, Cav3.2 channel (Homo sapiens, UniProt O95180).
T1 construct: expressed in transfected cells; host or cells: HEK-293, tetracycline inducible expression system (Invitrogen)
The experiment in a line: Whole-cell patch clamp of T-type Cav3.2 channel expressed in HEK293 cells. Format: cell-based. The conditions noted are these: for inhibition at 1 µM: HEK293, Table 1 primary screening. The protocol:
Cav3.1, Cav3.2 or Cav3.3 channels were expressed in human embryonic kidney (HEK)-293 cells using a tetracycline inducible expression system (Invitrogen). Cells were maintained in 25 cm^2 tissue culture flasks at 37° C., 5% CO2, and 100% relative humidity in D-MEM/F12 (Dulbecco's Modified Eagle Medium/Nutrient Mixture F-12; Gibco) supplemented with fetal bovine serum (FBS, 10% v/v), sodium pyruvate (0.5 mM, Gibco), penicillin-streptomycin (100 U/mL, 100 μg/mL) and Geneticin® Selective antibiotic (G418; 0.5 mg/mL). Cells were detached from the flask base using a non-enzymatic cell dissociation solution (Cellstripper, Corning), removed and re-seeded on to poly-D-lysine coated glass coverslips in 35 mm dishes. Cells in dishes were further supplemented with G418 at a final concentration of 1 mg/mL and after 24 hours, expression of Cav3.2 was induced with 1 μg/mL tetracycline. The medium for the HEK-293 cells was composed of D-MEM/F-12 (Dulbecco's Modified Eagle Medium/Nutrient Mixture F-12; Gibco, #11330-032) and 15 mM HEPES buffer, with L-glutamine and pyridoxine hydrochloride. It was supplemented with FBS (Fetal Bovine Serum), P/S (Penicillin/Streptomycin) (Gibco, #15140-122), and sodium pyruvate 100 mM (Gibco, #11360-070). At least 24 hours before the assay, expression of the alpha-2-delta-1 and beta2a subunits of the calcium channel were induced with 1 ug/mL tetracycline.
Whole-cell voltage clamp recordings were performed on rat or mouse DRG neurons within 2 days after acutely dissociation or cultured HEK293 cells expressing T-type channels (encoded by Cav3.1, Cav3.2 or Cav3.3 channels). All experiments were performed at room temperature (around 21° C.). Whole-cell currents were recorded using a MultiClamp 700B amplifier and analyzed offline with pCLAMP10.4 software (Molecular Devices, LLC, Sunnyvale Calif., USA). To record calcium currents in DRG and HEK293 cells, the external solution was composed (in mM) of 115 choline-Cl, 30 TEA-Cl, 2 CaCl2, 10 glucose and 10 HEPES (pH 7.3-7.4 adjusted with TEA-OH; osmolality verified as 295 mOsm/kg). The internal solution was composed (in mM) of 125 CsCl, 10 HEPES (acid), 10 EGTA (ethylene glycol tetraacetic acid), 1 CaCl2, 1 MgCl2, 4 MgATP and 0.3 MgGTP (pH 7.3-7.4 adjusted with CsOH; osmolality verified as 295 mOsm/kg). Since the sodium ions were absent in the external solution, tetrodoctoxin was not needed. Calcium currents were recorded at a holding potential of −100 mV and then depolarized to −30 mV for 100 ms to activate either Cav3.1, Cav3.2, or Cav3.3 expressed in HEK cells. An interpulse interval of 10 seconds allowed the channel recovery from inactivation, and achieved stable current recordings. To record sodium (Na^+) currents in DRG neurons, the external solution used the modified Krebs solution specified above. The internal solution was composed (in mM) of 120 CsF, 10 HEPES, 11 EGTA, 1 CaCl2, 1 MgCl2, 10 TEA-Cl, 4 MgATP and 0.3 MgGTP (pH 7.3-7.4 adjusted with CsOH). […] To record potassium currents in DRG neurons, the external solution used the modified Kreb's solution specified above. The internal solution was composed (in mM) of 65 KCl, 80 KF, 5 KOH, 10 EGTA, 2 MgATP (pH 7.3-7.4 adjusted with KOH). Recording electrodes were fabricated using a P-87 puller (Sutter Instrument Co., Novato, Calif., USA). The tip of resistance was 3-4 MQ in bath and the series resistance was less than 10 MΩ after whole cell configuration. All reagents were purchased from Sigma unless specified otherwise. Test compounds were usually applied via a rapid solution exchange system with 8 fine polyplastic tubings (100 μm, OD) glued in a holder in parallel and located closely to the recorded cells. […]

Setting [1] is: Table 1, tested at at least 4 concentrations, read-out: IC50.

pIC50: −log10 of the molar value. Read-outs that look alike come from different tables or passages of the source.

T1 sequence (O95180 whole entry): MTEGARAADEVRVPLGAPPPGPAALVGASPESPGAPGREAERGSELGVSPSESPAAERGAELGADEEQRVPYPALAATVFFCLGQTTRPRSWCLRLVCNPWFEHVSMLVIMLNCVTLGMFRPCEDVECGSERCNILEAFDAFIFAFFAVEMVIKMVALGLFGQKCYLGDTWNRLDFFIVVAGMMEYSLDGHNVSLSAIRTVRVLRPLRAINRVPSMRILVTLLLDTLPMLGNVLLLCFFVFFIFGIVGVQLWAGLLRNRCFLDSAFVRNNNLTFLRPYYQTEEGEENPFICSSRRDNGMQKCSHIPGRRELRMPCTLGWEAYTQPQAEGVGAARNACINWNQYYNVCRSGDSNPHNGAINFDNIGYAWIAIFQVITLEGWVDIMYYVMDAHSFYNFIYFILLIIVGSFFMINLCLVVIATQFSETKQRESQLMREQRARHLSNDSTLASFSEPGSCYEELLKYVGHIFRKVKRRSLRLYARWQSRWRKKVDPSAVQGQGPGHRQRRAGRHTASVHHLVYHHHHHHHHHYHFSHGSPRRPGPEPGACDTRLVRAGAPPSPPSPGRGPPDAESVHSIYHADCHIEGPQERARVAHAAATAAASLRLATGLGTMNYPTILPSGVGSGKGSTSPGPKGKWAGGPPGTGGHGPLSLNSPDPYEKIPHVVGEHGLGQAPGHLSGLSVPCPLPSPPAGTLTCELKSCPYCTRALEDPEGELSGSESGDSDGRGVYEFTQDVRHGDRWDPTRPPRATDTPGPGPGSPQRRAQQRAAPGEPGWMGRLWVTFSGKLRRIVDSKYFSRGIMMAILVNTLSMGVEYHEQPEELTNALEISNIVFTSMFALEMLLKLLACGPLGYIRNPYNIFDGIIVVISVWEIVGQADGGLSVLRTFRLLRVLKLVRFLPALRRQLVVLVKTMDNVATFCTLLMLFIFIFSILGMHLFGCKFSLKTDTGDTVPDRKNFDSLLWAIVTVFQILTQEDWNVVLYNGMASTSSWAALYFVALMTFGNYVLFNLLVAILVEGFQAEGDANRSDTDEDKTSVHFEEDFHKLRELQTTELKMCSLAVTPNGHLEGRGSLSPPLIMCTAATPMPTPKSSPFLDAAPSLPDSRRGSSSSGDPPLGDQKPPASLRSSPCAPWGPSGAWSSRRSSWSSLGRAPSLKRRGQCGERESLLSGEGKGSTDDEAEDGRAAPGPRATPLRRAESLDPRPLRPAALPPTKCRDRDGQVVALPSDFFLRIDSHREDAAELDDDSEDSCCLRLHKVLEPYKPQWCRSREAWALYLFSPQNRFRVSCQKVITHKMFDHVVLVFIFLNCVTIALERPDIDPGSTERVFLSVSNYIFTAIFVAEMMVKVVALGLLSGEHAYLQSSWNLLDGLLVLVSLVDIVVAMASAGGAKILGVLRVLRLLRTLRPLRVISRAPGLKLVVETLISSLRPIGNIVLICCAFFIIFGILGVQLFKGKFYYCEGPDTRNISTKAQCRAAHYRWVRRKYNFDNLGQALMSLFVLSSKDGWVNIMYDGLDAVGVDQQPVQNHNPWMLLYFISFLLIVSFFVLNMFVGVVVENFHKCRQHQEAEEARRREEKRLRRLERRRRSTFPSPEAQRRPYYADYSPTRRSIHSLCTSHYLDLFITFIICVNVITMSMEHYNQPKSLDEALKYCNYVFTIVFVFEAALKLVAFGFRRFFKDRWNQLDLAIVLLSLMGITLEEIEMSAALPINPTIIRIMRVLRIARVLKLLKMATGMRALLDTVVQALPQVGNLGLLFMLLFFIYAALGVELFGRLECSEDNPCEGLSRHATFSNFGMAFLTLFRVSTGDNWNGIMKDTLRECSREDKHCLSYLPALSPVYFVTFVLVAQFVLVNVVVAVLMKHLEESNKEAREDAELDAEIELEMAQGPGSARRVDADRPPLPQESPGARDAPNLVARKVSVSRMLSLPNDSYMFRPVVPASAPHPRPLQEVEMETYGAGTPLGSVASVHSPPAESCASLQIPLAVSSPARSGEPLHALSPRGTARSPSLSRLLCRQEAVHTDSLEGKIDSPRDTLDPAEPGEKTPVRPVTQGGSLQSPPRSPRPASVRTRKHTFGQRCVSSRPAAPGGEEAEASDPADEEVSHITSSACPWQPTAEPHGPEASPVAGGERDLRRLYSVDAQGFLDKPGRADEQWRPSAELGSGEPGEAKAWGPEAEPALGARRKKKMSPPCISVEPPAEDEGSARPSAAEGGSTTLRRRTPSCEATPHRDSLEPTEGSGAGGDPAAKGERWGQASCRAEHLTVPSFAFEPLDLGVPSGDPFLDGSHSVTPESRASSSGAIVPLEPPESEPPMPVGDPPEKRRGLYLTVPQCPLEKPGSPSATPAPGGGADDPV

A word on the inhibition: it is the change of the read-out against control, counted positive when it falls. Low values mean a weak effect, high ones a strong effect. For the compound `CC(C)(C)NC(=O)CN1CCC2(CC1)CC2NS(=O)(=O)c1cc(Cl)cc(Cl)c1` (stereo not shown) [Example 53, N-(tert-Butyl)-2-(1-((3,5-dichlorophenyl)sulfonamido)-6-azaspiro[2.5]octan-6-yl)acetamide], the inhibition at 1 µM came to 25%.

What is called pIC50 is the IC50 on a negative log10 scale, so that one unit is a factor of ten. For the compound `CC(C)(C)CCN1CCC2(CC1)CC2NC(=O)Cc1cc(C(F)(F)F)cc(C(F)(F)F)c1` (stereo not shown) [Example 31, 2-(3,5-Bis(trifluoromethyl)phenyl)-N-(6-(3,3-dimethylbutyl)-6-azaspiro[2.5]octan-1-yl)acetamide], under setting [1], the pIC50 is 7.10.

`Cc1cc(C)cc(C(=O)NC2CC23CCN(CCC(C)(C)C)CC3)c1` (stereo not shown) [Example 32, N-(6-(3,3-Dimethylbutyl)-6-azaspiro[2.5]octan-1-yl)-3,5-dimethylbenzamide]: the pIC50 under setting [1] is 6.54.

`O=C(N[C@@H]1CCC12CCN(CCc1ccccc1)CC2)c1ccccc1` [Example 111] had a pIC50 of 5.82 and an inhibition at 1 µM of 30%.

With `O=C(CN1CCC2(CC1)CC2NC(=O)c1cc(Cl)cc(Cl)c1)c1ccc(C(F)(F)F)cc1` (stereo not shown) [Example 50, 3,5-Dichloro-N-(6-(2-oxo-2-(4-(trifluoromethyl)phenyl)ethyl)-6-azaspiro[2.5]octan-1-yl)benzamide], the pIC50 under setting [1] was 7.10.

With `CC(C)(C)NC(=O)CN1CCC2(CC1)CC2C(=O)Nc1cc(Cl)cc(Cl)c1` (stereo not shown) [Example 90], the negative logarithm of the IC50 (pIC50) under setting [1] was 6.89.

Compound `O=C(Cc1cccc(Cl)c1)Nc1nnc(-c2ccc(Cl)s2)o1` [Example 121, 2-(3-Chlorophenyl)-N-(5-(5-chlorothiophen-2-yl)-1,3,4-oxadiazol-2-yl)acetamide] displayed an inhibition at 1 µM of 75%.

`O=S(=O)(NC1CC12CCN(CCc1ccccc1)CC2)c1cc(Cl)cc(Cl)c1` (stereo not shown) [Example 52, 3,5-Dichloro-N-(6-phenethyl-6-azaspiro[2.5]octan-1-yl)benzenesulfonamide] registered an inhibition at 1 µM of 29%.

As to `O=C(NCC1CC12CCN(CCc1ccccc1)CC2)c1cc(Cl)cc(Cl)c1` (stereo not shown) [Example 89, 3,5-Dichloro-N-((6-phenethyl-6-azaspiro[2.5]octan-1-yl)methyl)benzamide], the negative-log IC50 (pIC50) under setting [1] is 7.05.

On to `CC(C)(C)CCN1CCC2(CC1)CC2N(CC1CC1)C(=O)c1cc(Cl)cc(Cl)c1` (stereo not shown) [Example 55, 3,5-Dichloro-N-(cyclopropylmethyl)-N-(6-(3,3-dimethylbutyl)-6-azaspiro[2.5]octan-1-yl)benzamide], for which, under setting [1], the pIC50 is 7.15.

On to `O=C(CN1CCC2(CC1)CC2NC(=O)c1cc(F)cc(Cl)c1)c1ccc(F)cc1` (single isomer, unassigned) [Example 138, (R)-3-Chloro-5-fluoro-N-(6-(2-(4-fluorophenyl)-2-oxoethyl)-6-azaspiro[2.5]octan-1-yl)benzamide or (S)-3-Chloro-5-fluoro-N-(6-(2-(4-fluorophenyl)-2-oxoethyl)-6-azaspiro[2.5]octan-1-yl)benzamide], for which the pIC50 under setting [1] was 6.74.

Consider `O=C(NC1CC12CCN(CCc1ccc(F)cc1)CC2)c1cc(Cl)cc(Cl)c1` (stereo not shown) [Example 40, 3,5-Dichloro-N-(6-(4-fluorophenethyl)-6-azaspiro[2.5]octan-1-yl)benzamide], for which, under setting [1], the pIC50 was 6.80.

With `O=C(CN1CCC2(CC1)CC2NC(=O)c1cc(F)cc(Cl)c1)c1ccc(C(F)(F)F)cc1` (single isomer, unassigned) [Example 136, (R)-3-Chloro-5-fluoro-N-(6-(2-oxo-2-(4-(trifluoromethyl)phenyl)ethyl)-6-azaspiro[2.5]octan-1-yl)benzamide or (S)-3-Chloro-5-fluoro-N-(6-(2-oxo-2-(4-(trifluoromethyl)phenyl)ethyl)-6-azaspiro[2.5]octan-1-yl) benzamide], under setting [1], the pIC50 is 6.59.

Compound `COc1cc(OC)cc(C(=O)NC2CC23CCN(CCC(C)(C)C)CC3)c1` (stereo not shown) [Example 33, N-(6-(3,3-Dimethylbutyl)-6-azaspiro[2.5]octan-1-yl)-3,5-dimethoxybenzamide] returned an inhibition at 1 µM of 63%.

As for `CC(C)(C)CCN1CCC2(CC1)CC2NC(=O)c1cccc(C#N)c1` (stereo not shown) [Example 34, 3-Cyano-N-(6-(3,3-dimethylbutyl)-6-azaspiro[2.5]octan-1-yl)benzamide], under setting [1], the negative-log IC50 (pIC50) is 5.85.

On to `CC(C)(C)CCN1CCC2(CC1)CC2NC(=O)c1ccc(Cl)c(Cl)c1` (stereo not shown) [Example 7, 3,4-Dichloro-N-(6-(3,3-dimethylbutyl)-6-azaspiro[2.5]octan-1-yl)benzamide], for which the negative logarithm of the IC50 (pIC50) under setting [1] was 6.92.

Consider `CC(C)NC(=O)CN1CCC2(CC1)CC2NC(=O)c1cc(F)cc(Cl)c1` (single isomer, unassigned) [Example 140, (R)-3-Chloro-5-fluoro-N-(6-(2-(isopropylamino)-2-oxoethyl)-6-azaspiro[2.5]octan-1-yl)benzamide or (S)-3-Chloro-5-fluoro-N-(6-(2-(isopropylamino)-2-oxoethyl)-6-azaspiro[2.5]octan-1-yl)benzamide], for which the pIC50 under setting [1] is 6.28.

The compound `CC(C)(C)CCN1CCC2(CC1)CC2NC(=O)c1ccc(Cl)cc1` (stereo not shown) [Example 22, 4-Chloro-N-(6-(3,3-dimethylbutyl)-6-azaspiro[2.5]octan-1-yl)benzamide] registered an inhibition at 1 µM of 50%.

For the compound `CC(C)(C)CCN1CCC2(CC1)CC2NS(=O)(=O)c1cc(Cl)cc(Cl)c1` (stereo not shown) [Example 51, 3,5-Dichloro-N-(6-(3,3-dimethylbutyl)-6-azaspiro[2.5]octan-1-yl)benzenesulfonamide], the inhibition at 1 µM was 47%.

On to `CC(C)(C)CCN1CCC2(CC1)CC2NC(=O)c1cccc(C(F)(F)F)c1` (stereo not shown) [Example 29, N-(6-(3,3-Dimethylbutyl)-6-azaspiro[2.5]octan-1-yl)-3-(trifluoromethyl)benzamide], for which the inhibition at 1 µM is 69%.

For `O=C(N[C@H]1CCC12CCN(CCc1ccccc1)CC2)c1ccccc1` [Example 112], the inhibition at 1 µM was determined as 24%.

Take `O=C(CN1CCC(CNC(=O)c2ccccc2)CC1)Nc1ccccc1` [Example 101, N-((1-(2-Oxo-2-(phenylamino)ethyl)piperidin-4-yl)methyl)benzamide]: the inhibition at 1 µM stood at 44%.

In turn, `CC(C)(C)NC(=O)CN1CCC(CNC(=O)CCc2cccc(Cl)c2)CC1` [Example 99, N-((1-(2-(tert-Butylamino)-2-oxoethyl)piperidin-4-yl)methyl)-3-(3-chlorophenyl)propanamide] came in with an inhibition at 1 µM of 75%.

With `CC(C)(C)NC(=O)CN1CCC2(CC1)CC2NC(=O)c1ccc(Cl)c(Cl)c1` (stereo not shown) [Example 9, N-(6-(2-(tert-Butylamino)-2-oxoethyl)-6-azaspiro[2.5]octan-1-yl)-3,4-dichlorobenzamide], the negative logarithm of the IC50 (pIC50) under setting [1] was 7.10.

Consider `CC(C)(C)C(O)CN1CCC2(CC1)CC2NC(=O)c1cc(Cl)cc(Cl)c1` (stereo not shown) [Example 58, 3,5-Dichloro-N-(6-(2-hydroxy-3,3-dimethylbutyl)-6-azaspiro[2.5]octan-1-yl)benzamide], for which the pIC50 under setting [1] was 6.66.

Take `O=C(CN1CCC(CNC(=O)c2ccc(O)cc2)CC1)Nc1ccccc1` [Example 102, 4-Hydroxy-N-((1-(2-oxo-2-(phenylamino)ethyl)piperidin-4-yl)methyl)benzamide]: at 1 µM the inhibition was 47%.

Turning to `CC(C)(C)CCN1CCC2(CC1)CC2NC(=O)c1cccc(Cl)c1` (stereo not shown) [Example 21, 3-Chloro-N-(6-(3,3-dimethylbutyl)-6-azaspiro[2.5]octan-1-yl)benzamide], the inhibition at 1 µM was 67%.

The values are drawn from patent US10562857B2 (AFASCI, Inc., priority 2015, dated 2020).
